Assay results from ChEMBL document CHEMBL3808392, “Design, synthesis and biological evaluation of 5-fluorouracil-derived benzimidazoles as novel type of potential antimicrobial agents” (2016).
Converted amounts (≈) assume the structure as drawn.

Key:
Candida albicans = test: Antimicrobial activity against Candida albicans ATCC 10231 after 24 hrs by microbroth dilution method; type: functional; conditions: ATCC 10231, 24 h
Candida = test: Antimicrobial activity against Candida mycoderma ATCC 9888 after 24 hrs by microbroth dilution method; type: functional; conditions: ATCC 9888, 24 h
Saccharomyces cerevisiae = test: Antimicrobial activity against Saccharomyces cerevisiae after 24 hrs by microbroth dilution method; type: functional
Aspergillus flavus = test: Antimicrobial activity against Aspergillus flavus ATCC 204304 after 24 hrs by microbroth dilution method; type: functional; conditions: ATCC 204304, 24 h
Staphylococcus aureus [1] = test: Antimicrobial activity against methicillin-resistant Staphylococcus aureus N315 after 24 hrs by microbroth dilution method; type: functional; conditions: N315, 24 h
Staphylococcus aureus [2] = test: Antimicrobial activity against Staphylococcus aureus ATCC 25923 after 24 hrs by microbroth dilution method; type: functional; conditions: ATCC 25923, 24 h
Bacillus spizizenii = test: Antimicrobial activity against Bacillus subtilis ATCC 6633 after 24 hrs by microbroth dilution method; type: functional; conditions: ATCC 6633, 24 h
Micrococcus luteus = test: Antimicrobial activity against Micrococcus luteus ATCC 4698 after 24 hrs by microbroth dilution method; type: functional; conditions: ATCC 4698, 24 h
Escherichia coli [3] = test: Antimicrobial activity against Escherichia coli DH52 after 24 hrs by microbroth dilution method; type: functional; conditions: DH52, 24 h
Escherichia coli [4] = test: Antimicrobial activity against Escherichia coli JM109 after 24 hrs by microbroth dilution method; type: functional; conditions: JM109, 24 h
[5] = Antimicrobial activity against Bacillus proteus ATCC 13315 after 24 hrs by microbroth dilution method; type: functional; conditions: ATCC 13315, 24 h
Salmonella typhi = test: Antimicrobial activity against Bacillus typhi after 24 hrs by microbroth dilution method; type: functional, Salmonella enterica subsp. enterica serovar Typhi; conditions: Salmonella enterica
Escherichia coli [6] = test: Potency index, ratio of chloromycin MIC to compound MIC for antimicrobial activity against Escherichia coli DH52; type: functional

SMILES	MIC (Candida albicans) [µg/mL]	MIC (Candida) [µg/mL]	MIC (Saccharomyces cerevisiae) [µg/mL]	MIC (Aspergillus flavus) [µg/mL]	MIC (Staphylococcus aureus [1]) [µg/mL]	MIC (Staphylococcus aureus [2]) [µg/mL]	MIC (Bacillus spizizenii) [µg/mL]	MIC (Micrococcus luteus) [µg/mL]	MIC (Escherichia coli [3]) [µg/mL]	MIC (Escherichia coli [4]) [µg/mL]	MIC [5] [µg/mL]	MIC (Salmonella typhi) [µg/mL]	Ratio (Escherichia coli [6])
OC(Cn1cncn1)(Cn1cncn1)c1ccc(F)cc1F [FLUCONAZOLE]	1 (≈ 3.27 µM)	4 (≈ 13.1 µM)	16 (≈ 52.2 µM)	256 (≈ 836 µM)	–	–	–	–	–	–	–	–	–
CCCCCn1c(=O)c(F)cn(Cc2nc3ccccc3n2CCCCC)c1=O	> 512	8 (≈ 20 µM)	8 (≈ 20 µM)	> 512	16 (≈ 40 µM)	16 (≈ 40 µM)	512 (≈ 1280 µM)	32 (≈ 79.9 µM)	512 (≈ 1280 µM)	16 (≈ 40 µM)	8 (≈ 20 µM)	512 (≈ 1280 µM)	–
O=c1c(F)cn(Cc2nc3ccccc3n2Cc2ccccc2F)c(=O)n1Cc1ccccc1F	> 512	512 (≈ 1070 µM)	128 (≈ 269 µM)	> 512	512 (≈ 1070 µM)	16 (≈ 33.6 µM)	128 (≈ 269 µM)	512 (≈ 1070 µM)	128 (≈ 269 µM)	128 (≈ 269 µM)	512 (≈ 1070 µM)	512 (≈ 1070 µM)	–
CCn1c(Cn2cc(F)c(=O)[nH]c2=O)nc2ccccc21	2 (≈ 6.94 µM)	16 (≈ 55.5 µM)	4 (≈ 13.9 µM)	32 (≈ 111 µM)	16 (≈ 55.5 µM)	16 (≈ 55.5 µM)	64 (≈ 222 µM)	16 (≈ 55.5 µM)	8 (≈ 27.8 µM)	64 (≈ 222 µM)	32 (≈ 111 µM)	32 (≈ 111 µM)	4
O=c1[nH]c(=O)n(Cc2nc3ccccc3[nH]2)cc1F	32 (≈ 123 µM)	64 (≈ 246 µM)	64 (≈ 246 µM)	128 (≈ 492 µM)	128 (≈ 492 µM)	128 (≈ 492 µM)	64 (≈ 246 µM)	64 (≈ 246 µM)	64 (≈ 246 µM)	32 (≈ 123 µM)	16 (≈ 61.5 µM)	32 (≈ 123 µM)	–
CCCCCCCCn1c(Cn2cc(F)c(=O)[nH]c2=O)nc2ccccc21	32 (≈ 85.9 µM)	64 (≈ 172 µM)	32 (≈ 85.9 µM)	32 (≈ 85.9 µM)	512 (≈ 1370 µM)	512 (≈ 1370 µM)	512 (≈ 1370 µM)	512 (≈ 1370 µM)	64 (≈ 172 µM)	256 (≈ 687 µM)	512 (≈ 1370 µM)	512 (≈ 1370 µM)	–
CCn1cc(C(=O)O)c(=O)c2cc(F)c(N3CCNCC3)cc21 [NORFLOXACIN]	–	–	–	–	8 (≈ 25.1 µM)	2 (≈ 6.26 µM)	4 (≈ 12.5 µM)	2 (≈ 6.26 µM)	1 (≈ 3.13 µM)	1 (≈ 3.13 µM)	8 (≈ 25.1 µM)	4 (≈ 12.5 µM)	–
CCCCCCCCn1c(=O)c(F)cn(Cc2nc3ccccc3n2CCCCCCCC)c1=O	64 (≈ 132 µM)	512 (≈ 1060 µM)	> 512	512 (≈ 1060 µM)	> 512	> 512	512 (≈ 1060 µM)	512 (≈ 1060 µM)	512 (≈ 1060 µM)	512 (≈ 1060 µM)	> 512	512 (≈ 1060 µM)	–
Cc1ccc(Cn2c(=O)c(F)cn(Cc3nc4ccccc4n3Cc3ccc(C)cc3)c2=O)cc1	> 512	> 512	> 512	> 512	> 512	> 512	> 512	> 512	128 (≈ 273 µM)	> 512	> 512	512 (≈ 1090 µM)	–
O=c1c(F)cn(Cc2nc3ccccc3n2Cc2ccc(F)cc2)c(=O)n1Cc1ccc(F)cc1	> 512	> 512	> 512	512 (≈ 1070 µM)	512 (≈ 1070 µM)	> 512	> 512	> 512	> 512	> 512	> 512	512 (≈ 1070 µM)	–
O=c1c(F)cn(Cc2nc3ccccc3n2Cc2ccc(Cl)cc2)c(=O)n1Cc1ccc(Cl)cc1	4 (≈ 7.85 µM)	> 512	> 512	> 512	> 512	> 512	> 512	> 512	> 512	> 512	> 512	512 (≈ 1010 µM)	–
